{"source": "patent US5677439A", "about": "“Oligonucleotide analogues containing phosphate diester linkage substitutes, compositions thereof, and precursor dinucleotide analogues” (Sanofi, priority 1995, dated 1997)", "key": {"PHA stimulated human PBL": {"tested_on": "PHA stimulated human PBL", "experiment": "Progression of PHA stimulated PBL into the S-phase of the cell cycle (flow cytometry)", "format": "cell-based", "settings": "PHA stimulation 48 hours, versus nontreated control", "protocol": "Human PBL's were stimulated with PHA for 48 hours in the presence or absence of the antisense oligonucleotide sequences of Table 6. The percent of the population of cells in each treatment group in the S-phase of the cell cycle as compared to the nontreated control was determined using standard flow cytometric techniques."}, "[1]": {"tested_on": "c-myc protein in MOLT-4 human T-cell leukemia cells", "experiment": "C-MYC protein expression in MOLT-4 cells (35S-methionine, radioimmunoprecipitation)", "format": "cell-based", "settings": "60 μM, 8 hours incubation", "protocol": "Asynchronous exponentially growing Molt-4 cells were incubated for 8 hours in the presence or absence of 60 μM c-myc directed antisense DNA. The cells were then incubated for 45 minutes in the presence of ^35 S-methionine and the content of c-myc protein guantitated using radioimmunoprecipitation with a c-myc antibody."}, "[2]": {"tested_on": "fetal calf serum-associated exonuclease", "experiment": "Nuclease resistance: 2 h incubation in cell culture medium with 10% fetal calf serum, HPLC of parent compound", "format": "in vitro ADME", "settings": "for % DEGRADATION MAJOR PEAK: 2 hours at 37° C., 6 or 7 μM, RPMI 1640 medium with 10% heat inactivated FCS; for degradation / resistance to hydrolysis by FCS-associated exonucleases (in words): 2 hrs incubation, 10% FCS; for AREA-MAJOR PEAK/2.0 HR: HPLC peak area of parent compound after 2.0 hr at 37° C. in RPMI 1640 with 10% FCS; for AREA-MAJOR PEAK/0.0 MIN: HPLC peak area of parent compound, 260 nm; for % of oligomer remained after incubation: 2 hrs incubation with fetal calf serum-associated exonuclease", "protocol": "The oligonucleotides of Table 4 were dissolved in water. DNA concentrations were then determined by measuring the absorbance of samples at 260 nm (on a Perkin Elmer Lambda 4C Spectrophotometer at ambient room temperature) and using calculated extinction coefficients [method of Cantor and Warsaw, CRC Handbook of Biochemistry and Molecular Biology, 3rd. ed.\nThe FCS was heat inactivated at 56° C. for 0.5 hour prior to use. Samples were then placed on ice and deproteinized using five extractions with 24:1 chloroform:isoamyl alcohol. Samples were either stored frozen at -20° C. or immediately loaded onto a refrigerated (4° C.) WISP (Waters) HPLC autoinjector.\nOligonucleotide hydrolysis was guantitated by determining the amount of disappearance of the parent compound. Oligonucleotides (from the reaction mixture) were separated on an LKB Ultrachrome GTi dual pump chromatography system equipped with a fixed wavelength detector (260 nm), and recording integrator, using a GenPak FAX (Waters) anion exchange column eguilibrated in Buffer A (1 mM EDTA; 15 mM sodium phosphate, pH 8.5). Column temperature was maintained at 60° C. using a Waters column oven. Fifty microliter sample injection volumes were used. The oligonucleotides were eluted using a linear gradient of 0% to 100% Buffer B (Buffer A containing 0.5M NaCl) over 60 minutes. Buffer flow rate was 1 mL/min."}}, "note": "Entries after “also recorded” stand apart in the source; their conditions may differ."}
{"substance": "5' AAC GTT GAG GGG CAT 3' [reference compound]", "values": [{"measurement": "% CONTROL S-PHASE", "setting": "PHA stimulated human PBL; 30 μM", "value": "75 ± 6", "unit": "%"}, {"measurement": "% CONTROL S-PHASE", "setting": "PHA stimulated human PBL; 60 μM", "value": "9 ± 10", "unit": "%"}, {"measurement": "% REDUCTION C-MYC PROTEIN", "setting": "[1]", "value": "61.0 ± 2.6", "unit": "%"}]}
{"substance": "5' XX CCT CGA CCA CCG CAT XX (A) 3' (antisense CCTCGACCACCGCAT; two TEG at each end, 3' A, chemistry not fully specified) [Ref. Code 10, TEG-terminated anti-RAS oncogene DNA, X is TEG]", "values": [{"measurement": "% DEGRADATION MAJOR PEAK", "setting": "[2]", "value": 0.0, "unit": "%"}, {"measurement": "degradation / resistance to hydrolysis by FCS-associated exonucleases (in words)", "setting": "[2]", "value": "no degradation; also recorded: completely resistant to hydrolysis"}, {"measurement": "AREA-MAJOR PEAK/2.0 HR", "setting": "[2]", "value": 0.3697}, {"measurement": "AREA-MAJOR PEAK/0.0 MIN", "setting": "[2]", "value": 0.3642}]}
{"substance": "5' X CCT CGA CCA CCG CAT X (A) 3' (antisense CCTCGACCACCGCAT; triethylene glycol unit at both ends, extra 3' A, further chemistry not given here) [Ref. Code 9, TEG-terminated anti-RAS oncogene DNA, X is TEG]", "values": [{"measurement": "% DEGRADATION MAJOR PEAK", "setting": "[2]", "value": 13.0, "unit": "%"}, {"measurement": "% of oligomer remained after incubation", "setting": "[2]", "value": 87.0, "unit": "%"}, {"measurement": "AREA-MAJOR PEAK/2.0 HR", "setting": "[2]", "value": 0.3258}, {"measurement": "AREA-MAJOR PEAK/0.0 MIN", "setting": "[2]", "value": 0.3744}]}
{"substance": "5' X GGA GCT GGT GGC GTA X (A) 3' (antisense GGAGCTGGTGGCGTA; triethylene glycol unit at both ends, extra 3' A, further chemistry not given here) [Ref. Code 7, TEG-terminated anti-RAS oncogene DNA, X is TEG]", "values": [{"measurement": "% DEGRADATION MAJOR PEAK", "setting": "[2]", "value": 0.0, "unit": "%"}, {"measurement": "degradation / resistance to hydrolysis by FCS-associated exonucleases (in words)", "setting": "[2]", "value": "no degradation; also recorded: completely resistant to hydrolysis"}, {"measurement": "AREA-MAJOR PEAK/2.0 HR", "setting": "[2]", "value": 0.3663}, {"measurement": "AREA-MAJOR PEAK/0.0 MIN", "setting": "[2]", "value": 0.2325}]}
{"substance": "5' CCT CGA CCA CCG CAT 3' (DNA CCTCGACCACCGCAT; DNA, backbone and methylation of C not given here) [Ref. Code 11, unmodified oligodeoxynucleotide made by standard solid phase phosphoramidite procedures, comparison, reference compound]", "values": [{"measurement": "% DEGRADATION MAJOR PEAK", "setting": "[2]", "value": 75.3, "unit": "%"}, {"measurement": "% of oligomer remained after incubation", "setting": "[2]", "value": 24.7, "unit": "%"}, {"measurement": "AREA-MAJOR PEAK/2.0 HR", "setting": "[2]", "value": 0.3177}, {"measurement": "AREA-MAJOR PEAK/0.0 MIN", "setting": "[2]", "value": 1.2861}]}
{"substance": "5' XX GGA GCT GGT GGC GTA XX (A) 3' (antisense GGAGCTGGTGGCGTA; two triethylene glycol units at each end, extra 3' A, further chemistry not given here) [Ref. Code 8, TEG-terminated anti-RAS oncogene DNA, X is TEG]", "values": [{"measurement": "% DEGRADATION MAJOR PEAK", "setting": "[2]", "value": 17.9, "unit": "%"}, {"measurement": "% of oligomer remained after incubation", "setting": "[2]", "value": 82.1, "unit": "%"}, {"measurement": "AREA-MAJOR PEAK/2.0 HR", "setting": "[2]", "value": 0.1777}, {"measurement": "AREA-MAJOR PEAK/0.0 MIN", "setting": "[2]", "value": 0.2164}]}
